One may read the IC50 as the concentration that inhibits the measured activity by half.

Data on 13 compounds can be found in patent US9340513B2, “Propenoate derivatives of betulin” (GlaxoSmithKline LLC, priority 2011, dated 2016).

Molecules are shown by their SMILES.

One experiment has as its system HIV-1 (strain IIIB). The experiment is described as follows: MT4 Cell Antiviral Assay. The experiment is classed as cell-based. The following applies: Human immunodeficiency virus 1, 120 h; HIV-1 strain IIIB in MT4 cells, 5 days, Cell Titer-Glo; 50% decrease in HIV-induced cytopathic effect. As to the method:
Antiviral HIV activity and compound-induced cytotoxicity were measured in parallel based on a modified protocol of the propidium iodide based procedure in the human T-cell lymphotropic virus transformed cell line MT4. Aliquots of the test compounds were serially diluted in DMSO plated in 96-well plates. Exponentially growing MT4 cells were harvested and pelleted. Cell pellets were resuspended in fresh medium (RPMI 1640, 10% FCS, and gentamycin. Cell aliquots were infected by the addition of HIV-1 (strain IIIB) diluted to give a viral multiplicity of infection of 300×TCID50/million cells. A similar cell aliquot was diluted with medium to provide a mock-infected control. Cell infection was allowed to proceed for 1 hr at 37° C. in a tissue culture incubator with humidified 5% CO2 atmosphere. After the 1 hr incubation the virus/cell suspensions were diluted with fresh medium, and added to each well of the plate containing pre-diluted compound. Plates were then placed in a tissue culture incubator with humidified 5% CO2 for 5 days. […] The plates were analyzed in an automated plate reader for luminescence.assay. The control and standard used was efavirinz tested over a concentration range of 0.001 to 1 μM in every assay. The expected range of IC50 values for efavirinz is 0.1 to 1 nM.
The antiviral effect of a test compound is reported as an IC50, i.e. the inhibitory concentration that would produce a 50% decrease in the HIV-induced cytopathic effect. This effect is measured by the amount of test compound required to restore 50% of the cell growth of HIV-infected MT4 cells, compared to uninfected MT4 cell controls. IC50 was calculated by RoboSage, Automated Curve Fitting Program.
For each assay plate, the results (of wells containing uninfected cells or infected cells with no compound were averaged, respectively. For measurements of compound-induced cytotoxicty, results from wells containing various compound concentrations and uninfected cells were compared to the average of uninfected cells without compound treatment. Percent of cells remaining is determined by the following formula: Percent of cells remaining=(compound-treated uninfected cells/untreated uninfected cells)×100.
A level of percent of cells remaining of 79% or less indicates a significant level of direct compound-induced cytotoxicity for the compound at that concentration. When this condition occurs the results from the compound-treated infected wells at this concentration are not included in the calculation of IC50.
For measurements of compound antiviral activity, results from wells containing various compound concentrations and infected cells are compared to the average of uninfected and infected cells without compound treatment. Percent inhibition of virus is determined by the following formula: Percent inhibition of virus=(1−((ave. untreated uninfected cells−treated infected cells)/(ave. untreated uninfected cells−ave. untreated infected cells)))×100
(In ATP-based viability assays light output follows the ATP content of the culture.)

A further experiment deals with HIV. The note with it: cited from earlier work.

Compound `Cc1ccc(NC(=O)/C=C/[C@@]23CC[C@]4(C)[C@H](CC[C@@H]5[C@@]6(C)CC[C@H](OC(=O)CC(C)(C)C(=O)O)C(C)(C)[C@@H]6CC[C@]54C)C2=C(C(C)C)C(=O)C3)cc1` [Example 21, 4-(((3aS,5aR,5bR,7aR,9S,11aR,11bR,13aS)-1-Isopropyl-5a,5b,8,8,11a-pentamethyl-2-oxo-3a-((E)-3-oxo-3-(p-tolylamino)prop-1-en-1-yl)-3,3a,4,5,5a,5b,6,7,7a,8,9,10,11,11a,11b,12,13,13a-octadecahydro-2H-cyclopenta[a]chrysen-9-yl)oxy)-2,2-dimethyl-4-oxobutanoic acid] gave an IC50 in the experiment on HIV-1 (strain IIIB) of 10 to 250 nM. On the same count and under the same terms, under `CC(C)C1=C2[C@H]3CC[C@@H]4[C@@]5(C)CC[C@H](OC(=O)CC(C)(C)C(=O)O)C(C)(C)[C@@H]5CC[C@@]4(C)[C@]3(C)CC[C@@]2(/C=C/C(=O)Nc2ccc(Cl)cc2)CC1=O` [Example 2, 4-(((3aS,5aR,5bR,7aR,9S,11aR,11bR,13aS)-3a-((E)-3-((4-Chlorophenyl)amino)-3-oxoprop-1-en-1-yl)-1-isopropyl-5a,5b,8,8,11a-pentamethyl-2-oxo-3,3a,4,5,5a,5b,6,7,7a,8,9,10,11,11a,11b,12,13,13a-octadecahydro-2H-cyclopenta[a]chrysen-9-yl)oxy)-2,2-dimethyl-4-oxobutanoic acid] stands 10 to 250 nM; under `CC(C)C1=C2[C@H]3CC[C@@H]4[C@@]5(C)CC[C@H](OC(=O)CC(C)(C)C(=O)O)C(C)(C)[C@@H]5CC[C@@]4(C)[C@]3(C)CC[C@@]2(/C=C/C(=O)N[C@@H](C)c2ccc(Cl)cc2)CC1=O` [Example 6, 4-(((3aS,5aR,5bR,7aR,9S,11aR,11bR,13aS)-3a-((E)-3-(((S)-1-(4-Chlorophenyl)ethyl)amino)-3-oxoprop-1-en-1-yl)-1-isopropyl-5a,5b,8,8,11a-pentamethyl-2-oxo-3,3a,4,5,5a,5b,6,7,7a,8,9,10,11,11a,11b,12,13,13a-octadecahydro-2H-cyclopenta[a]chrysen-9-yl)oxy)-2,2-dimethyl-4-oxobutanoic acid], 10 to 250 nM; under `CC(C)C1=C2[C@H]3CC[C@@H]4[C@@]5(C)CC[C@H](OC(=O)CC(C)(C)C(=O)O)C(C)(C)[C@@H]5CC[C@@]4(C)[C@]3(C)CC[C@@]2(/C=C/C(=O)N[C@@H](C)c2ccccc2Cl)CC1=O` [Example 25, 4-(((3aS,5aR,5bR,7aR,9S,11aR,11bR,13aS)-3a-((E)-3-(((S)-1-(2-Chlorophenyl)ethyl)amino)-3-oxoprop-1-en-1-yl)-1-isopropyl-5a,5b,8,8,11a-pentamethyl-2-oxo-3,3a,4,5,5a,5b,6,7,7a,8,9,10,11,11a,11b,12,13,13a-octadecahydro-2H-cyclopenta[a]chrysen-9-yl)oxy)-2,2-dimethyl-4-oxobutanoic acid], 10 to 250 nM. Same read-out and setting: to `CC(C)C1=C2[C@H]3CC[C@@H]4[C@@]5(C)CC[C@H](OC(=O)CC(C)(C)C(=O)O)C(C)(C)[C@@H]5CC[C@@]4(C)[C@]3(C)CC[C@@]2(/C=C/C(=O)N[C@H](C)c2ccccn2)CC1=O` [Example 14, 4-(((3aS,5aR,5bR,7aR,9S,11aR,11bR,13aS)-1-Isopropyl-5a,5b,8,8,11a-pentamethyl-2-oxo-3a-((E)-3-oxo-3-(((R)-1-(pyridin-2-yl)ethyl)amino)prop-1-en-1-yl)-3,3a,4,5,5a,5b,6,7,7a,8,9,10,11,11a,11b,12,13,13a-octadecahydro-2H-cyclopenta[a]chrysen-9-yl)oxy)-2,2-dimethyl-4-oxobutanoic acid] belongs 10 to 250 nM; to `C/C(=C\[C@@]12CC[C@]3(C)[C@H](CC[C@@H]4[C@@]5(C)CC[C@H](OC(=O)CC(C)(C)C(=O)O)C(C)(C)[C@@H]5CC[C@]43C)C1=C(C(C)C)C(=O)C2)C(=O)NC1(c2ccc(Cl)cc2)CC1` [Example 27, 4-(((3aS,5aR,5bR,7aR,9S,11aR,11bR,13aS)-3a-((E)-3-((1-(4-Chlorophenyl)cyclopropyl)amino)-2-methyl-3-oxoprop-1-en-1-yl)-1-isopropyl-5a,5b,8,8,11a-pentamethyl-2-oxo-3,3a,4,5,5a,5b,6,7,7a,8,9,10,11,11a,11b,12,13,13a-octadecahydro-2H-cyclopenta[a]chrysen-9-yl)oxy)-2,2-dimethyl-4-oxobutanoic acid], < 10 nM.

Take `C=C(C)[C@@H]1CC[C@]2(C(=O)O)CC[C@]3(C)[C@H](CC[C@@H]4[C@@]5(C)CC[C@H](OC(=O)CC(C)(C)C(=O)O)C(C)(C)[C@@H]5CC[C@]43C)[C@@H]12` [Bevirimat]: the “mean reduction of HIV viral load” value in the experiment with HIV (patients with trough levels >=20 μg/mL and without key baseline Gag polymorphisms at Q369, V370 or T371) was 1.3 log10/mL. The “viral load reduction versus patients without Gag polymorphisms” value with HIV (users with Gag polymorphisms at Q369, V370 or T371) was “significantly lower load reductions”. For the compound `CC(C)C1=C2[C@H]3CC[C@@H]4[C@@]5(C)CC[C@H](OC(=O)CC(C)(C)C(=O)O)C(C)(C)[C@@H]5CC[C@@]4(C)[C@]3(C)CC[C@@]2(/C=C/C(=O)NCCO)CC1=O` [Example 32, 4-(((3aS,5aR,5bR,7aR,9S,11aR,11bR,13aS)-3a-((E)-3-((2-Hydroxyethyl)amino)-3-oxoprop-1-en-1-yl)-1-isopropyl-5a,5b,8,8,11a-pentamethyl-2-oxo-3,3a,4,5,5a,5b,6,7,7a,8,9,10,11,11a,11b,12,13,13a-octadecahydro-2H-cyclopenta[a]chrysen-9-yl)oxy)-2,2-dimethyl-4-oxobutanoic acid], the IC50 in the experiment with HIV-1 (strain IIIB) was 10 to 250 nM.

`CC(C)C1=C2[C@H]3CC[C@@H]4[C@@]5(C)CC[C@H](OC(=O)CC(C)(C)C(=O)O)C(C)(C)[C@@H]5CC[C@@]4(C)[C@]3(C)CC[C@@]2(/C=C/C(=O)Nc2ccccn2)CC1=O` [Example 19]: in the experiment with HIV-1 (strain IIIB), the IC50 is 10 to 250 nM.

Turning to `CC(C)C1=C2[C@H]3CC[C@@H]4[C@@]5(C)CC[C@H](OC(=O)CC(C)(C)C(=O)O)C(C)(C)[C@@H]5CC[C@@]4(C)[C@]3(C)CC[C@@]2(/C=C/C(=O)O)CC1=O` [Example 16, 4-(((3aS,5aR,5bR,7aR,9S,11aR,11bR,13aS)-3a-((E)-2-Carboxyvinyl)-1-isopropyl-5a,5b,8,8,11a-pentamethyl-2-oxo-3,3a,4,5,5a,5b,6,7,7a,8,9,10,11,11a,11b,12,13,13a-octadecahydro-2H-cyclopenta[a]chrysen-9-yl)oxy)-2,2-dimethyl-4-oxobutanoic acid], the IC50 in the experiment with HIV-1 (strain IIIB) lay within 250 to 10000 nM.

In the case of `CC(C)C1=C2[C@H]3CC[C@@H]4[C@@]5(C)CC[C@H](OC(=O)CC(C)(C)C(=O)O)C(C)(C)[C@@H]5CC[C@@]4(C)[C@]3(C)CC[C@@]2(/C=C/C(=O)NC2(c3ccc(Cl)cn3)CC2)CC1=O` [Example 7, 4-(((3aS,5aR,5bR,7aR,9S,11aR,11bR,13aS)-3a-((E)-3-((1-(5-Chloropyridin-2-yl)cyclopropyl)amino)-3-oxoprop-1-en-1-yl)-1-isopropyl-5a,5b,8,8,11a-pentamethyl-2-oxo-3,3a,4,5,5a,5b,6,7,7a,8,9,10,11,11a,11b,12,13,13a-octadecahydro-2H-cyclopenta[a]chrysen-9-yl)oxy)-2,2-dimethyl-4-oxobutanoic acid], the IC50 in the experiment on HIV-1 (strain IIIB) is < 10 nM. The same measure, in the same setting: to `CC(C)C1=C2[C@H]3CC[C@@H]4[C@@]5(C)CC[C@H](OC(=O)CC(C)(C)C(=O)O)C(C)(C)[C@@H]5CC[C@@]4(C)[C@]3(C)CC[C@@]2(/C=C/C(=O)N[C@H](C)c2ccc(Cl)cc2)CC1=O` [Example 4, 4-(((3aS,5aR,5bR,7aR,9S,11aR,11bR,13aS)-3a-((E)-3-(((R)-1-(4-Chlorophenyl)ethyl)amino)-3-oxoprop-1-en-1-yl)-1-isopropyl-5a,5b,8,8,11a-pentamethyl-2-oxo-3,3a,4,5,5a,5b,6,7,7a,8,9,10,11,11a,11b,12,13,13a-octadecahydro-2H-cyclopenta[a]chrysen-9-yl)oxy)-2,2-dimethyl-4-oxobutanoic acid] belongs 10 to 250 nM; to `CC(C)C1=C2[C@H]3CC[C@@H]4[C@@]5(C)CC[C@H](OC(=O)CC(C)(C)C(=O)O)C(C)(C)[C@@H]5CC[C@@]4(C)[C@]3(C)CC[C@@]2(/C=C/C(=O)N[C@@H](C)c2ccccn2)CC1=O` [Example 15, 4-(((3aS,5aR,5bR,7aR,9S,11aR,11bR,13aS)-1-Isopropyl-5a,5b,8,8,11a-pentamethyl-2-oxo-3a-((E)-3-oxo-3-(((S)-1-(pyridin-2-yl)ethyl)amino)prop-1-en-1-yl)-3,3a,4,5,5a,5b,6,7,7a,8,9,10,11,11a,11b,12,13,13a-octadecahydro-2H-cyclopenta[a]chrysen-9-yl)oxy)-2,2-dimethyl-4-oxobutanoic acid], 10 to 250 nM.
